Target: EGFR (UniProt P00533)
Sequence (P00533 whole entry, looked up): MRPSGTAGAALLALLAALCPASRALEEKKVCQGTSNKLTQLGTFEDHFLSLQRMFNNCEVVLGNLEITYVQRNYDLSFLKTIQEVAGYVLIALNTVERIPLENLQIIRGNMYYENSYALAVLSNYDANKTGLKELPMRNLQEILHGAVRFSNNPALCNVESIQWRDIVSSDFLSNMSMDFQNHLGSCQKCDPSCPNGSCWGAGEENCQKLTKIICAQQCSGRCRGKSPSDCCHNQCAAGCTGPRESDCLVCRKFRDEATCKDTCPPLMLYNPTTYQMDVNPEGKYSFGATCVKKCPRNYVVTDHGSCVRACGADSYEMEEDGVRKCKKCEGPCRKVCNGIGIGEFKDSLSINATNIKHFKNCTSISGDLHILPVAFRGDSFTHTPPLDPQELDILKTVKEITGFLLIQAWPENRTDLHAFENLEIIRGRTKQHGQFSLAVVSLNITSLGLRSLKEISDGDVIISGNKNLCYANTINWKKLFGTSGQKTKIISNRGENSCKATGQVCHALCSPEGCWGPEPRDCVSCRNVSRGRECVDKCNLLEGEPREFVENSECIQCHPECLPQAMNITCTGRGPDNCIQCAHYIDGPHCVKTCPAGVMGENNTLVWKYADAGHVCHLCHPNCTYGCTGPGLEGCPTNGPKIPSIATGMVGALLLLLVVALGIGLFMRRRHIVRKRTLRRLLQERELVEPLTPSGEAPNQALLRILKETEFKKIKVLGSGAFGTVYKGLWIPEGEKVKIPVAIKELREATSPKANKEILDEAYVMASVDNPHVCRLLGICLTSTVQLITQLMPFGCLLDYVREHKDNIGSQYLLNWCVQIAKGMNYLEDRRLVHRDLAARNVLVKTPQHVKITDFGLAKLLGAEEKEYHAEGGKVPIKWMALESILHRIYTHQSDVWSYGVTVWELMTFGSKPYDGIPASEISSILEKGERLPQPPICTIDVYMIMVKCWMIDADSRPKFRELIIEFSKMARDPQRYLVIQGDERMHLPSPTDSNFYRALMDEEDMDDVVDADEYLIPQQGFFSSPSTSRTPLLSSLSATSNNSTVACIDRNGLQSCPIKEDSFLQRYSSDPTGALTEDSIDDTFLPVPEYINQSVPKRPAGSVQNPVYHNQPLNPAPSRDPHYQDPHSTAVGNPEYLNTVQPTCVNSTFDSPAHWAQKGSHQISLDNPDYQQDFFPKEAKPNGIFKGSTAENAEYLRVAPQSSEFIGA

Row | Structure (SMILES) | IC50
1 | CCN(CC)[C@H]1CO[C@@H]2[C@H]1OC[C@@H]2Oc1cc2ncnc(Nc3ccc(Br)c(Cl)c3)c2cc1OC | < 50 nM
2 | COc1cc2c(Nc3cc(Br)cc(C(F)(F)F)c3)ncnc2cc1O[C@@H]1CO[C@@H]2[C@H]1OC[C@H]2F | < 50 nM
3 | COc1cc2c(Nc3ccc(Cl)c(Cl)c3)ncnc2cc1OCC1CN(C)CCN1C (stereo unspecified) | < 50 nM
4 | COc1cc2c(Nc3ccc(Cl)c(Cl)c3)ncnc2cc1OCC1CN(C(=O)c2ccoc2)CCO1 (stereo unspecified) | < 50 nM
5 | C#CCN1CCOC(COc2cc3ncnc(Nc4ccc(Cl)c(Cl)c4)c3cc2OC)C1 (stereo unspecified) | < 50 nM
6 | COc1cc2c(Nc3ccc(Cl)c(Cl)c3)ncnc2cc1OCC1CN(C(=NC#N)N2CCCC2)CCO1 (stereo unspecified) | < 50 nM
7 | CCC1(C)CN(C)CC(COc2cc3ncnc(Nc4ccc(Cl)c(Cl)c4)c3cc2OC)O1 (stereo unspecified) | < 50 nM
8 | COc1cc2c(Nc3ccc(Cl)c(Cl)c3)ncnc2cc1OCC1CN(CCC(C)C)CCCO1 (stereo unspecified) | < 50 nM
9 | COc1cc2c(Nc3cccc(Cl)c3F)ncnc2cc1O[C@H]1CO[C@H]2[C@@H]1OC[C@@H]2OC | < 50 nM
10 | COc1cc2c(Nc3ccc(Cl)c(Cl)c3)ncnc2cc1OCC1CN(CCCOC2CCCCO2)CCCO1 (stereo unspecified) | < 50 nM
11 | COc1cc2c(Nc3cc(Cl)c(Cl)cc3F)ncnc2cc1OCC1CN(C)C(C)(C)CO1 (stereo unspecified) | < 50 nM
12 | CCC(C(=O)N1CCOC(COc2cc3ncnc(Nc4ccc(Cl)c(Cl)c4)c3cc2OC)C1)c1ccccc1 (stereo unspecified) | < 50 nM
13 | COc1cc2c(Nc3ccc(Cl)cc3Cl)ncnc2cc1OCC1CN(C)CCO1 (stereo unspecified) | < 50 nM
14 | COc1cc2c(Nc3ccc(Cl)c(Br)c3)ncnc2cc1OCC1CN(C)CCO1 (stereo unspecified) | < 50 nM
15 | COC(=O)CCN1CCOC(COc2cc3ncnc(Nc4ccc(Cl)c(Cl)c4)c3cc2OC)C1 (stereo unspecified) | < 50 nM
16 | COc1cc2c(Nc3ccc(Br)c(Cl)c3Cl)ncnc2cc1OC[C@H]1CN2CCOC[C@H]2CO1 | < 50 nM
17 | COc1cc2c(Nc3cc(Cl)c(Cl)cc3F)ncnc2cc1OC[C@@H]1CN2CCC[C@H]2CO1 | < 50 nM
18 | COc1cc2c(Nc3ccc(Cl)c(Cl)c3)ncnc2cc1OCc1csc(CN2CCCC2)n1 | < 50 nM
19 | COc1cc2c(Nc3ccc(Cl)c(Cl)c3)ncnc2cc1OCC1CN(C(C)=O)CCCO1 (stereo unspecified) | < 50 nM
20 | COc1cc2c(Nc3ccc(F)c(Cl)c3F)ncnc2cc1OC[C@@H]1CN2CCC[C@H]2CO1 | < 50 nM
21 | COc1cc2c(Nc3ccc(Cl)c(Cl)c3)ncnc2cc1OCc1csc(C2CCCCN2C)n1 (stereo unspecified) | < 50 nM
22 | COc1cc2c(Nc3ccc(N4CCN(C)CC4)c(Cl)c3Cl)ncnc2cc1O[C@H]1CO[C@@H]2[C@H]1OC[C@@H]2F | < 50 nM
23 | COc1cc2c(Nc3ccc(Cl)c(Cl)c3)ncnc2cc1OCc1nc(-c2ccc(C(C)(C)C)cc2)no1 | 50 to 1000 nM

Row | Structure (SMILES) | IC50
24 | COc1cc2c(Nc3ccc(Cl)c(Cl)c3)ncnc2cc1OCc1csc(-c2ccc(C(F)(F)F)cc2)n1 | 50 to 1000 nM
25 | COc1cc2c(Nc3ccc(Br)c(Cl)c3)ncnc2cc1O[C@H]1CO[C@@H]2[C@H]1OC[C@@H]2N1CCOCC1 | < 50 nM
26 | COc1cc2c(Nc3ccc(Cl)c(Cl)c3)ncnc2cc1OCc1csc(C2CCNCC2)n1 | < 50 nM
27 | CCCCN1CCOC(COc2cc3ncnc(Nc4ccc(Cl)c(Cl)c4)c3cc2OC)C1 (stereo unspecified) | < 50 nM
28 | COc1cc2c(Nc3cc(Cl)ccc3F)ncnc2cc1O[C@@H]1CO[C@@H]2[C@H]1OC[C@H]2F | < 50 nM
29 | COc1cc2c(Nc3ccc(Cl)c(Cl)c3)ncnc2cc1OCC1CN(CC(=O)c2ccccc2)CCO1 (stereo unspecified) | < 50 nM
30 | COc1cc2c(Nc3ccc(Cl)c(Cl)c3)ncnc2cc1OCc1csc([C@@H]2CCCN2C)n1 | < 50 nM
31 | COc1cc2c(Nc3ccc(Cl)c(C)c3)ncnc2cc1OCC1CN(C)CCO1 (stereo unspecified) | < 50 nM
32 | COc1cc2c(Nc3ccc(Cl)c(Cl)c3)ncnc2cc1OCC1CN(C(=O)c2ccc3c(c2)OCO3)CCO1 (stereo unspecified) | < 50 nM
33 | COc1cc2c(Nc3ccc(F)c(F)c3F)ncnc2cc1O[C@@H]1CO[C@@H]2[C@H]1OC[C@H]2F | < 50 nM
34 | C=CCN1CCOC(COc2cc3ncnc(Nc4ccc(Cl)c(Cl)c4)c3cc2OC)C1 (stereo unspecified) | < 50 nM
35 | CCCCCCCCN1CCOC(COc2cc3ncnc(Nc4ccc(Cl)c(Cl)c4)c3cc2OC)C1 (stereo unspecified) | < 50 nM
36 | COc1cc2c(Nc3cc(Cl)c(Br)cc3F)ncnc2cc1OC[C@H]1CN2CCOC[C@H]2CO1 | < 50 nM
37 | COc1cc2c(Nc3ccc(Cl)c(Cl)c3)ncnc2cc1OCC1CN(C2CCCC2)CCO1 (stereo unspecified) | < 50 nM
38 | COc1cc2c(Nc3ccc(Br)c(Cl)c3)ncnc2cc1O[C@@H]1CO[C@@H]2[C@H]1OC[C@@H]2O | < 50 nM
39 | C=CCCCN1CCOC(COc2cc3ncnc(Nc4ccc(Cl)c(Cl)c4)c3cc2OC)C1 (stereo unspecified) | < 50 nM
40 | CCO[C@H]1CO[C@H]2[C@@H]1OC[C@@H]2Oc1cc2ncnc(Nc3ccc(Br)c(Cl)c3)c2cc1OC | < 50 nM
41 | COc1cc2c(Nc3ccc(Cl)c(Cl)c3)ncnc2cc1OCc1noc(-c2c(C)noc2C)n1 | < 50 nM
42 | COc1cc2c(Nc3ccc(Cl)c(Cl)c3)ncnc2cc1OCc1nc(CS(=O)(=O)c2ccccn2)no1 | < 50 nM
43 | COc1cc2c(Nc3ccc(Cl)c(Cl)c3)ncnc2cc1OCC1CN(CCCC#N)CCO1 (stereo unspecified) | < 50 nM
44 | COc1cc2c(Nc3ccc(Br)c(Cl)c3F)ncnc2cc1OCC1CN(C)C(C)(C)CO1 (stereo unspecified) | < 50 nM
45 | COc1cc2c(Nc3ccc(Cl)cc3)ncnc2cc1O[C@@H]1CO[C@@H]2[C@H]1OC[C@H]2F | < 50 nM
46 | COc1cc2c(Nc3ccc(Cl)c(Cl)c3)ncnc2cc1OCC1CN(C/C=C/Br)CCO1 (stereo unspecified) | < 50 nM

Row | Structure (SMILES) | IC50
47 | COc1cc2c(Nc3ccc(F)cc3Br)ncnc2cc1O[C@@H]1CO[C@@H]2[C@H]1OC[C@H]2F | < 50 nM
48 | COc1cc2c(Nc3ccc(N4CCN(C)CC4)cc3)ncnc2cc1O[C@H]1CO[C@@H]2[C@H]1OC[C@@H]2F | < 50 nM
49 | CCN1CCCOC(COc2cc3ncnc(Nc4ccc(Cl)c(Cl)c4)c3cc2OC)C1 (stereo unspecified) | < 50 nM
50 | CCN1CCN(c2noc(COc3cc4ncnc(Nc5ccc(Cl)c(Cl)c5)c4cc3OC)n2)CC1 | < 50 nM
51 | COc1cc2c(Nc3ccc(F)cc3Cl)ncnc2cc1O[C@@H]1CO[C@@H]2[C@H]1OC[C@H]2F | < 50 nM
52 | COc1cc2c(Nc3ccc(F)c(Cl)c3F)ncnc2cc1OC[C@H]1CN2CCOC[C@H]2CO1 | < 50 nM
53 | CCCCS(=O)(=O)N1CCOC(COc2cc3ncnc(Nc4ccc(Cl)c(Cl)c4)c3cc2OC)C1 (stereo unspecified) | < 50 nM
54 | COc1cc2c(Nc3ccc(Cl)c(Cl)c3)ncnc2cc1OCC1CN(C2CCN(C)CC2)CCO1 (stereo unspecified) | < 50 nM
55 | COc1cc2c(Nc3ccc(Cl)c(Cl)c3)ncnc2cc1OCC1CN(C(=O)c2cccc3ccccc23)CCO1 (stereo unspecified) | < 50 nM
56 | COc1cc2c(Nc3ccc(Br)c(Cl)c3Cl)ncnc2cc1OC[C@@H]1CN2CCC[C@H]2CO1 | < 50 nM
57 | COc1cc2c(Nc3ccc(Cl)c(Cl)c3)ncnc2cc1OCc1csc(N2CCNCC2)n1 | < 50 nM
58 | COc1cc2c(Nc3ccc(Br)c(Cl)c3)ncnc2cc1O[C@@H]1CO[C@@H]2[C@H]1OC[C@@H]2OS(C)(=O)=O | < 50 nM
59 | COc1cc2c(Nc3cc(Cl)c(Cl)c(Cl)c3)ncnc2cc1OCC1CN(C)CCO1 (stereo unspecified) | < 50 nM
60 | COc1cc2c(Nc3ccc(Cl)c(Cl)c3)ncnc2cc1OC1CCCC1 | < 50 nM
61 | COc1cc2c(Nc3ccc(Cl)c(Cl)c3)ncnc2cc1OCc1csc([C@@H]2CCCN2)n1 | < 50 nM
62 | COc1cc2c(Nc3ccc(Cl)c(Cl)c3F)ncnc2cc1OC[C@@H]1CN2CCCC[C@@H]2C(=O)N1 | < 50 nM
63 | COc1cc2c(Nc3ccc(Cl)c(Cl)c3)ncnc2cc1OCC1CN(C2CCOCC2)CCO1 (stereo unspecified) | < 50 nM
64 | COc1cc2c(Nc3ccc(Cl)c(Cl)c3)ncnc2cc1OCCC1OCCO1 | < 50 nM
65 | COc1cc2c(Nc3ccc(Cl)c(Cl)c3)ncnc2cc1OCc1nc(N2CCOCC2)no1 | < 50 nM
66 | COc1cc2c(Nc3ccc(Cl)c(Cl)c3)ncnc2cc1OCc1noc(C2CCN(C(=O)OC(C)(C)C)CC2)n1 | < 50 nM
67 | COc1cc2c(Nc3ccc(Cl)c(Cl)c3)ncnc2cc1OCC1CN(CCOCCO)CCO1 (stereo unspecified) | < 50 nM
68 | COc1cc2c(Nc3ccc(Cl)c(Cl)c3)ncnc2cc1OCC1CN(C(=O)c2c(C)noc2C)CCO1 (stereo unspecified) | < 50 nM
69 | CCN1CCN(c2nc(COc3cc4ncnc(Nc5ccc(Cl)c(Cl)c5)c4cc3OC)cs2)CC1 | < 50 nM

Row | Structure (SMILES) | IC50
70 | COc1cc2c(Nc3ccc(Cl)c(Cl)c3)ncnc2cc1OCCN1C(=O)c2ccccc2C1=O | < 50 nM
71 | COc1cc2c(Nc3c(F)cc(F)cc3F)ncnc2cc1O[C@@H]1CO[C@@H]2[C@H]1OC[C@H]2F | < 50 nM
72 | COc1cc2c(Nc3ccc(Cl)c(Cl)c3)ncnc2cc1OCc1nc(CN2CCOCC2)cs1 | < 50 nM
73 | COc1cc2c(Nc3ccc(Cl)c(Cl)c3N3CCN(C)CC3)ncnc2cc1O[C@H]1CO[C@@H]2[C@H]1OC[C@@H]2F | < 50 nM
74 | COc1cc2c(Nc3ccc(Cl)c(Cl)c3)ncnc2cc1OCC1CN(C(=NC#N)N2CCCCC2)CCO1 (stereo unspecified) | < 50 nM
75 | CCOc1cc2c(Nc3ccc(Cl)c(Cl)c3)ncnc2cc1OCC1CNCCO1 (stereo unspecified) | < 50 nM
76 | COc1cc2c(Nc3ccc(Cl)c(Cl)c3)ncnc2cc1OCc1nc2c(s1)CN(C)CC2 | < 50 nM
77 | COc1cc2c(Nc3ccc(Cl)c(Cl)c3)ncnc2cc1OCC1CN(C(=O)C(C)(C)C)CCO1 (stereo unspecified) | < 50 nM
78 | COc1cc2c(Nc3ccc(Cl)c(Cl)c3)ncnc2cc1OCC1CN(C(=O)CCc2ccccc2)CCO1 (stereo unspecified) | < 50 nM
79 | COc1cc2c(Nc3ccc(Cl)c(Cl)c3F)ncnc2cc1OC[C@@H]1CN2CCCC[C@H]2C(=O)N1 | < 50 nM
80 | CCOc1cc2c(Nc3ccc(Cl)c(Cl)c3)ncnc2cc1OCC1CN(C)CCO1 (stereo unspecified) | < 50 nM
81 | COc1cc2c(Nc3ccc(Cl)c(Cl)c3)ncnc2cc1OCCC1CC2CCC(C1)N2C (stereo unspecified) | < 50 nM
82 | COc1cc2c(Nc3ccc(Cl)c(Cl)c3)ncnc2cc1OCC1CN(S(C)(=O)=O)CCCO1 (stereo unspecified) | < 50 nM
83 | COc1cc2c(Nc3ccc(Cl)c(Cl)c3)ncnc2cc1OC1C[C@@H]2CN(C)C[C@@H]2C1 (stereo partly specified) | < 50 nM
84 | COc1cc2c(Nc3ccc(Cl)c(Cl)c3)ncnc2cc1OCC1CN(CCCCF)CCO1 (stereo unspecified) | < 50 nM
85 | COc1cc2c(Nc3cccc(Br)c3Cl)ncnc2cc1OCC1CN(C)CCO1 (stereo unspecified) | < 50 nM
86 | COc1cc2c(Nc3cc(Cl)ccc3Cl)ncnc2cc1O[C@@H]1CO[C@@H]2[C@H]1OC[C@H]2F | < 50 nM
87 | COc1cc2c(Nc3ccccc3F)ncnc2cc1O[C@@H]1CO[C@@H]2[C@H]1OC[C@H]2F | < 50 nM
88 | COc1cc2c(Nc3cc(Cl)c(Br)cc3F)ncnc2cc1OC[C@@H]1CN2CCC[C@H]2CO1 | < 50 nM
89 | COc1cc2c(Nc3ccc(Cl)c(Cl)c3)ncnc2cc1OCc1noc(OCc2ccccc2)n1 | < 50 nM
90 | COc1cc2c(Nc3cccc(Cl)c3F)ncnc2cc1OCC1CN(C)CCO1 (stereo unspecified) | < 50 nM
91 | COc1cc2c(Nc3ccc(Cl)c(Cl)c3)ncnc2cc1OCC1CN(C(=O)c2c(F)ccc(F)c2F)CCO1 (stereo unspecified) | < 50 nM

Source: the Kinase Knowledgebase extract (Sharma et al. 2016)
